Results on one compound are retold here after publication PMC7123187 (HCV: The Journey from Discovery to a Cure, 2018).

Series [1] concerns the target NS5B P495L (Hepatitis C virus genotype 1b, UniProt Q9WMX2, P2914L). As to the kind of experiment: biochemical.
The target in series [2] is CYP 3A4 (Homo sapiens, UniProt P08684). The series can be described thus: in vitro.
The test system of series [3] is chronic HCV genotype 1 infection. The conditions noted are these: patients, cited from earlier work.
Series [4] in a line: in vitro. To be noted: monkey, microsomes.
In series [5] the test system is HCV genotype 1b (Con1) replicon in Huh-7. As to the kind of experiment: microbe, parasite or virus in culture. The conditions noted are these: Hepatitis C virus, GETYPE1B, Huh-7, read-out: potency in the replicon assays. Format: cell-based. (A replicon is a self-replicating genome or part of one, used to study replication in cells.)
The nature of series [6]: in vitro.
The target in series [7] is human pregnane X receptor (hPXR) (Homo sapiens, UniProt O75469). The conditions noted are these: at 5.56 μM.
human pregnane X receptor (hPXR), sequence (O75469 whole entry): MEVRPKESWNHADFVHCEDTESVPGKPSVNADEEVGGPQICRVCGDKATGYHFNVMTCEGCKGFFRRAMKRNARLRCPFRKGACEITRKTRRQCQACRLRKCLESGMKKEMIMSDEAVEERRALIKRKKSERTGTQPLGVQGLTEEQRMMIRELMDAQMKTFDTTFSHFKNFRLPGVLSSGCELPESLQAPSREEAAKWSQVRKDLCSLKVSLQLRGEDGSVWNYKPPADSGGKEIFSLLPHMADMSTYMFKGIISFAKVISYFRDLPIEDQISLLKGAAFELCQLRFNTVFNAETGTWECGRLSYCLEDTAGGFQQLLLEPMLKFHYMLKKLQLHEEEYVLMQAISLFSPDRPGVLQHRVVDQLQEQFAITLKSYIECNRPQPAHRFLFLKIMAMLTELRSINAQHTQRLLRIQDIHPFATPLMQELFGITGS
The target in series [8] is human phosphodiesterase 4. The series can be described thus: Phosphodiesterase 4 functional assay. Format: biochemical. The conditions noted are these: read-out: IC50 phosphodiesterase 4 functional assay.
Series [9] can be described thus: physchem. To be noted: pKa values, zwitterionic form.
Series [10] concerns the target recombinant wild-type NS5B (genotype 1b, Con1) (Hepatitis C virus genotype 1b, UniProt Q9WMX2). As to the kind of experiment: biochemical.
The nature of series [11]: in vivo. The conditions noted are these: rat.
The conditions of series [12]: rat; for liver levels: satellite study.
The test system of series [13] is BVDV, polio, rhino, corona, coxsackie, influenza, and human immunodeficiency viruses (HIV). The series can be described thus: organism not typed. The format is cell-based. To be noted: read-out: EC50 against panel of viruses.
Series [14] in a line: in vitro. Format: in vitro ADME. The conditions noted are these: human, microsomes.

Like-named read-outs stand apart in the source and are kept apart here.

In general, IC50 refers to the concentration needed to halve the response being measured. What is called half-life is the time in which the quantity being followed falls by half. By pKa is commonly meant the negative logarithm of the acid dissociation constant. A word on the AUC(0-inf): it is total exposure, with the tail of the curve extrapolated. Lower therefore signals low exposure. The Cmax is the peak of the concentration-time curve.

CYP 3A4, sequence (P08684 whole entry): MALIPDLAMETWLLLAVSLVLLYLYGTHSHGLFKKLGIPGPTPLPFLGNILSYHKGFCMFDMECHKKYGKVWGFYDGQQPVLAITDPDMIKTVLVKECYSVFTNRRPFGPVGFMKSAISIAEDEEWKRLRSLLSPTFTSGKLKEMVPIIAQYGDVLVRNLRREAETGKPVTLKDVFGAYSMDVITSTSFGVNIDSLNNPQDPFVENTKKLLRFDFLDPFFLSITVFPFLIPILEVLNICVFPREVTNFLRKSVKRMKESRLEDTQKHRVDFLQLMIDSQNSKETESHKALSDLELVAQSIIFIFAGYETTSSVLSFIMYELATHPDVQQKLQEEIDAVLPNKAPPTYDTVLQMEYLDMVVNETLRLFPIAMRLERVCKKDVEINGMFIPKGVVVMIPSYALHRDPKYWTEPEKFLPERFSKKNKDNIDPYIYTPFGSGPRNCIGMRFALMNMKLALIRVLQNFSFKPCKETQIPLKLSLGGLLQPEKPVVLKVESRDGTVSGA

Consider `COc1ccc2c(c1)[C@@H]1C[C@]1(C(=O)N1[C@@H]3CC[C@H]1CN(C)C3)Cn1c-2c(C2CCCCC2)c2ccc(C(=O)NS(=O)(=O)N(C)C)cc21` [Compound 66, beclabuvir], for which the “bound to human serum” value is given as 98%. The compound further showed an IC50 in series [1] of 0.19 µM. Moreover, in series [2], the half-inhibitory concentration (IC50) is greater than 40 µM. In addition, the “decline in viral load” value in series [3] (300 mg single dose, 24 h post-dosing) was “approximately 2.5 log10 IU/mL”. Moreover, the tolerability entry in [3] (single doses 100-900 mg) is recorded as “well tolerated”. In series [4], this compound had a half-life of 23 min. Moreover, the EC50 in series [5] is less than 0.01 µM. In series [6], this compound showed a CC50 of 14 to 48 µM. In series [7], the “hPXR transactivation Y max” value is reported as 8.1 ± 1.9. Also, in [8], the half-maximal inhibitory concentration (IC50) is greater than 10 µM. The same compound gave a pKa in [9] of 4.6. Further, the IC50 in series [10] worked out at 0.02 µM. For the same compound, in series [11] (iv, 5 mg/kg), the AUC(0-inf) came out at 30 µM·h, the Cmax came out at 12.1 µM and the half-life is 672 min. In series [11] (po, 10 mg/kg), this compound returned an AUC(0-inf) of 39.3 µM·h and a Cmax of 3.26 µM. Also, in series [12] (4 h following oral dosing), the liver levels is listed as 24,400 nM. Further, in series [12] (24 h following oral dosing), the liver levels was 1,700 nM. Besides, in [12] (in vivo, iv, 5 mg/kg), the Cl is reported as 3.5 (±0.8) mL/min/kg. Besides, in series [13], the EC50 is greater than 14 µM. In [14], this compound returned a half-life of 53 min.
